Laboratory results as given in article PMC11570809, “Novel N-phenyl-2-(aniline) benzamide hydrochloride salt development for colon cancer therapy” (Frontiers in Pharmacology, 2024).
Structures can show the parent of a compound that is named as a salt. Where two headings read alike, the source gives them in different places.

Assays:
[1] = Thermodynamic solubility in water (HPLC); format: physicochemical; settings: for Solubility, equivalent molar concentration: water
Procedure: The thermodynamic solubility of N53·HCl in water was determined by high-performance liquid chromatography (Waterage, Alliance HPLC E2695, United States). The HPLC mobile phases were water (0.1% formic acid) and methanol separated by gradient chromatography at 0.5 mL/min. The chromatographic conditions were followed. Mobile phase: methanol: H2O = 10:90; 15 min; wavelength: 254 nm; temperature: 25°C. N53 and N53·HCl were dissolved in methanol to form a gradient concentration standard solution (0.32, 1.6, 8, 40, 200 and 1,000 μg/mL). The standard solutions were scanned at 254 nm and the absorption area was recorded against the concentration curve. Saturated solutions of the compounds were prepared by magnetic stirring at 37°C for 4 h in deionized water in small volumes and the solid compounds were removed using Millipore 0.45 μm filters. The saturated solution was then scanned at 254 nm. The thermodynamic solubility in water was calculated from the absorption area and curve.

[2] = test system: HepG2; assay: MTT anti-proliferation assay, HepG2; format: cell-based, human; settings: read-out: IC50 ± SD HepG2
[3] = test system: SK-Hep-1; assay: MTT anti-proliferation assay, SK-Hep-1; format: cell-based, human; settings: read-out: IC50 ± SD SK-Hep-1
[4] = test system: HCT116; assay: MTT anti-proliferation assay, HCT116; format: cell-based, human; settings: 72 h, read-out: IC50 ± SD HCT116
Procedure: The anti-proliferation activities of synthesized compounds to colon cancer cell lines were measured by the MTT (3-[4,5-dimethyl-2-thiazolyl]-2,5-diphenyl-2H-tet razolium bromide) assay. First, the cell suspension was prepared by trypsin and the corresponding medium, cells were diluted to 5 × 10^5 cells/mL, and 96-well plates were added 200 μL per well. The plates were maintained at 37°C in a humidified atmosphere containing 5% CO2 overnight. Then compounds at gradient concentrations were added to cells in the logarithmic phase to make the final concentration at 0.5, 1, 2, 4, 8, 16, and 32 μM. The cells were treated with tested compounds for 72 h, and the growth curve assay was tested in 24 h. When the time was up, 20 μL of MTT solution (5 mg/mL in PBS) was added into each well to incubate for 4 h at 37°C. Then the supernatant liquid was removed, 150 μL DMSO was added into every well to dissolve formazan crystals and read the absorbance at 570 nm by Spark microplate spectrophotometer (Tecan, Swiss). The IC50 values were analyzed by IBM SPASS Statistics 25.0 software. The data are all derived from three parallel experiments (n = 3) and expressed as mean ± SD.

[5] = biological target: T1, Human COX-2 (Homo sapiens, UniProt P35354); assay: COX-2 inhibition assay (Human COX-2 Inhibitor Screening Kit); format: biochemical
T1 construct: purchased Beyotime S0168
T1 sequence (P35354 18-604): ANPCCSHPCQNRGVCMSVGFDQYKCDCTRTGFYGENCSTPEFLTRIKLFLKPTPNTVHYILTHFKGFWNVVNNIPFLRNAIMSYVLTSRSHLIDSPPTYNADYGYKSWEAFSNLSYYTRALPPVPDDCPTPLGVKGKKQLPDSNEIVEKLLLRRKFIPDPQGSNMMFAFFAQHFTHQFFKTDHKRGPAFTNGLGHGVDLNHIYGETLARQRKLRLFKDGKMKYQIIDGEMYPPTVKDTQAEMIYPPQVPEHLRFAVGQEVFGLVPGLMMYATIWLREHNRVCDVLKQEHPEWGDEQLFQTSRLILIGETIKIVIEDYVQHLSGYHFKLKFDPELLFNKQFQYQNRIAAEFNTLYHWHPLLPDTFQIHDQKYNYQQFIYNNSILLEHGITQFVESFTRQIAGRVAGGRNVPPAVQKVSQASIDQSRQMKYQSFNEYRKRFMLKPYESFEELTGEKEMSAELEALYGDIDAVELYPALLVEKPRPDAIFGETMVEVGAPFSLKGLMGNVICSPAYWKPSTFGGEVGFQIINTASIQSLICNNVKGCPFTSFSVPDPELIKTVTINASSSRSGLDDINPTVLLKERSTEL
Procedure: The COX-2 inhibitory activity of all the synthesized compounds was measured by the Human COX-2 Inhibitor Screening Kit (Beyotime, catalog no. S0168), and the specific steps were followed strictly according to the instructions. The lead compound N53 was also tested for reference purposes. The absorbance was measured at an excitation wavelength of 560 nm and an emission wavelength of 590 nm in a microplate reader. Each experimental condition was performed in triplicate and averaged.

With `Cc1c(Cl)cccc1Nc1ccccc1C(=O)Nc1ccc(N2CCN(C)CC2)cc1` [Compound N53, 2-((3-chloro-2-methylphenyl)amino)-N-(4-(4-methylp-iperazin-1-yl)phenyl)benzamide] the “Solubility, equivalent molar concentration” value [1] was < 0.74 µM, the IC50 ([2]; 72 h) was 2.31 ± 0.09 µM and the IC50 ([3]; 72 h) was 5.66 ± 0.47 µM. The IC50 [4] was 3.89 ± 0.41 µM and the “Inhibition rate (%) of COX-2 (2 μM)” value [5] was 3.6 ± 1.1%.
With `Cc1c(Cl)cccc1Nc1ccccc1C(=O)Nc1ccc(N2CCN(C)CC2)cc1` [N53·HCl, 4-(4-(2-((3-chloro-2-methylphenyl)amino)ben-zamido)phenyl)-1-methylpiperazin-1-ium] the solubility at 4 h ([1]; deionized water, thermodynamic, 37°C, 4 h) was 540 µg/mL, the Water solubility ([1]; thermodynamic, deionized water, 37°C, 4 h) was 540 µg/mL and the “Solubility, equivalent molar concentration” value [1] was 1150 µM. It also gave an IC50 ([2]; Homo sapiens, HepG2, 72 h) of 4.12 ± 0.39 µM, an IC50 ([3]; Homo sapiens, SK-HEP1, 72 h) of 8.18 µM and an IC50 [4] of 10.9 ± 1.3 µM. For the same compound, the “Inhibition rate (%) of COX-2 (2 μM)” value [5] was 32.5 ± 7.8%.
